Key:
Experiment in all cases: relative viability (nuclei count vs DMSO), 5 days (fraction); higher = more cells survive
[1] = compound: CCN(CCO)CCCC(C)Nc1ccnc2cc(Cl)ccc12 [Hydroxychloroquine] + CCNC(=O)c1noc(-c2cc(C(C)C)c(O)cc2O)c1-c1ccc(CN2CCOCC2)cc1 [Luminespib] (partner 0.01 µM)
In short: (§1)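 For relative viability, nuclei counts in treated wells were divided by those in vehicle wells. Lung cancer cell lines had been pin-tool dosed in 1536-well plates the day after seeding and cultured for 5 days, then fixed and stained in one step (final 0.05% Triton X-100, 1% formaldehyde, 1 ug/ml Hoechst) and imaged at 4×. Doses were one drug alone or a fixed anchor-drug dose plus five library-drug doses (not always all listed) in √10 steps, and values are duplicate-plate medians.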

[2] = compound: CCN(CCO)CCCC(C)Nc1ccnc2cc(Cl)ccc12 [Hydroxychloroquine] + COc1cc2c(Oc3ccc(NC(=O)C4(C(=O)Nc5ccc(F)cc5)CC4)cc3F)ccnc2cc1OCCCN1CCOCC1 [Foretinib] (partner 0.25 µM)
In short: as §1

[3] = compound: CCN(CCO)CCCC(C)Nc1ccnc2cc(Cl)ccc12 [Hydroxychloroquine] + Cc1nc(Nc2ncc(C(=O)Nc3c(C)cccc3Cl)s2)cc(N2CCN(CCO)CC2)n1 [Dasatinib] (partner 0.075 µM)
In short: as §1

[4] = compound: CCN(CCO)CCCC(C)Nc1ccnc2cc(Cl)ccc12 [Hydroxychloroquine] + Nc1ncn([C@H]2C[C@H](O)[C@@H](CO)O2)c(=O)n1 [Decitabine] (partner 2 µM)
In short: as §1

Cell Line	relative viability ([1]; first compound 0.5 µM)	relative viability ([1]; first compound 1.581 µM)	relative viability ([1]; first compound 5 µM)	relative viability ([1]; first compound 15.81 µM)	relative viability ([1]; first compound 50 µM)	relative viability ([2]; first compound 0.5 µM)	relative viability ([2]; first compound 1.581 µM)	relative viability ([2]; first compound 5 µM)	relative viability ([2]; first compound 15.81 µM)	relative viability ([2]; first compound 50 µM)	relative viability ([3]; first compound 0.5 µM)	relative viability ([3]; first compound 1.581 µM)	relative viability ([3]; first compound 5 µM)	relative viability ([3]; first compound 15.81 µM)	relative viability ([3]; first compound 50 µM)	relative viability ([4]; first compound 0.5 µM)	relative viability ([4]; first compound 1.581 µM)	relative viability ([4]; first compound 5 µM)	relative viability ([4]; first compound 15.81 µM)	relative viability ([4]; first compound 50 µM)
NCI-H441	0.361	0.334	0.328	0.417	0.329	0.919	1.07	1.02	1.02	0.861	0.608	0.559	0.66	0.496	0.684	0.23	0.326	0.241	0.245	0.228
NCI-H460	0.0311	0.0319	0.0298	0.0324	0.0362	1.01	0.995	1.08	1.04	1.25	0.576	0.481	0.457	0.527	0.599	0.431	0.528	0.441	0.563	0.559
NCI-H520	0.236	0.226	0.217	0.184	0.209	0.833	0.781	0.801	0.839	0.748	0.196	0.223	0.213	0.184	0.196	0.532	0.549	0.513	0.491	0.526
NCI-H596	1.09	1.03	0.959	0.993	0.958	0.758	0.669	0.875	0.823	0.855	0.56	0.587	0.59	0.655	0.591	0.954	1.02	1.12	0.966	0.993
NCI-H647	0.204	0.141	0.132	0.234	0.142	1.25	1.16	1.18	1.39	1.25	0.226	0.214	0.168	0.194	0.184	0.369	0.438	0.446	0.388	0.444
NCI-H650	0.884	0.818	0.78	0.881	0.795	1.04	0.888	0.983	1.03	0.97	0.501	0.405	0.446	0.458	0.479	0.347	0.31	0.361	0.31	0.307
NCI-H661	1.02	0.926	0.85	0.915	0.922	0.998	0.992	1.01	1	1.05	0.841	0.872	0.764	0.722	0.894	0.584	0.587	0.564	0.528	0.567
NCI-H727	0.265	0.423	0.318	0.464	0.779	0.752	0.767	0.735	0.794	0.922	0.337	0.379	0.471	0.43	0.457	1.02	0.93	0.839	0.829	0.693
NCI-H838	0.318	0.304	0.333	0.295	0.268	1.07	0.978	1.08	0.98	1.13	0.256	0.258	0.296	0.242	0.237	0.472	0.458	0.437	0.429	0.452
NCI-H1355	0.877	0.754	0.712	0.632	0.729	0.941	0.965	0.956	1.02	0.979	0.74	0.59	0.693	0.705	0.875	0.319	0.344	0.369	0.371	0.338
NCI-H1395	0.655	0.785	0.722	0.886	0.483	1.06	0.989	0.872	0.963	1.02	0.424	0.402	0.401	0.391	0.405	0.665	0.68	0.741	0.763	0.704
NCI-H1437	1.2	1.1	1.18	1.04	1.24	1.26	1.26	1.33	1.31	1.28	0.371	0.493	0.375	0.429	0.509	0.56	0.617	0.587	0.562	0.636
NCI-H1650	0.178	0.173	0.203	0.227	0.193	0.996	1.01	1.02	0.999	1.15	0.425	0.357	0.241	0.296	0.303	0.315	0.391	0.419	0.36	0.36
NCI-H1651	0.843	0.817	0.89	0.739	0.963	0.934	0.762	0.865	0.925	0.88	0.421	0.554	0.427	0.436	0.396	0.626	0.649	0.652	0.633	0.509
NCI-H1666	1.02	0.989	0.981	1.01	0.923	0.969	0.949	0.876	0.894	0.872	0.845	0.771	0.815	0.793	0.765	0.707	0.691	0.759	0.792	0.635
NCI-H1734	0.179	0.197	0.199	0.169	0.183	0.893	0.864	0.864	0.784	0.866	0.399	0.374	0.506	0.452	0.504	0.486	0.482	0.459	0.491	0.497
NCI-H1755	0.489	0.403	0.517	0.354	0.432	0.906	0.797	0.854	0.922	0.842	0.498	0.381	0.422	0.392	0.394	0.707	0.644	0.727	0.694	0.656
NCI-H1793	0.357	0.197	0.16	0.15	0.194	0.821	0.618	0.624	0.661	0.534	0.464	0.36	0.423	0.413	0.476	0.542	0.466	0.42	0.412	0.259
NCI-H1915	0.756	0.788	0.94	1.12	0.915	1.07	1.11	1.15	1.1	1.12	0.337	0.281	0.305	0.331	0.305	0.252	0.247	0.273	0.252	0.263
NCI-H1944	0.772	0.676	0.64	0.866	0.831	0.951	0.936	0.775	0.89	0.785	0.206	0.184	0.23	0.202	0.194	0.4	0.44	0.423	0.483	0.429
NCI-H1975	0.296	0.142	0.257	0.281	0.234	0.942	0.866	0.988	1.05	0.97	0.404	0.376	0.322	0.502	0.412	0.384	0.372	0.378	0.408	0.415
NCI-H1993	0.943	0.789	0.846	0.864	0.928	0.867	0.711	0.735	0.887	0.79	0.597	0.699	0.87	0.547	0.566	0.664	0.635	0.705	0.688	0.606
NCI-H2009	0.94	0.964	1.09	1.1	0.999	1.19	1.21	1.24	1.16	1.18	0.326	0.253	0.312	0.298	0.329	0.353	0.397	0.403	0.353	0.377
NCI-H2023	0.75	0.657	0.784	0.899	0.642	0.806	0.739	0.749	0.779	0.776	0.624	0.478	0.563	0.542	0.617	0.231	0.209	0.214	0.227	0.211
NCI-H2085	0.612	0.44	0.447	0.416	0.413	1.09	1.02	0.932	0.931	0.98	0.274	0.267	0.223	0.274	0.232	0.623	0.507	0.604	0.606	0.578
NCI-H2087	0.187	0.195	0.175	0.19	0.329	1.21	1.21	1.18	1.11	0.972	0.96	0.77	0.794	0.954	0.969	0.265	0.258	0.242	0.219	0.294
